Experiment [1] deals with Mia PACA-2 cells. Nature of the experiment: Intracellular ROS (H2O2) by flow cytometry of DCF-labeled cells. Type of experiment: cell-based, human. Particulars: Mia PACA-2, 72 hours; DPI 15 μM. As for the experimental part:
To determine the effect of serum in cancer cells, the following assay was conducted. Mia PACA-2 pancreatic cancer cells were cultured for 72 hours in the absence and presence of serum (15% FBS) or 100 ng/ml insulin growth factor-1 (IGF-1). Dichloroflyorescein diocetate (DCF-DA) was used to label the cells. Intracellular H2O2 was measured by flow cytometry of DCF-labeled cells. Intracellular ROS was measured using oxidation-sensitive cell-permeable fluorescent probe, dichlorofluorescein diacetate (DCF-DA) to measure H2O2. See Royall J A, and Ischiropoulos H. (1993) Arch. Biochem. Biophys. 302:348-355. To measure ROS, cells were collected after incubation, washed with PBS, and incubated for 15 minutes with […] DCF-DA. Samples were analyzed by flow cytometry. The amount of DCF-DA fluorescence correlated with the amount of ROS in the cells To determine the effects of serum, IGF-1, polyphenols and inhibitors of ROS on ROS production in cancer cells, the following assay was conducted. Mia PACA-2 cells were cultured for 72 hours in the presence of serum or IGF-1 with or without antioxidants, intracellular superoxide scavenger tiron (10 mM) or NADPH oxidase inhibitor, diphenylene iodonium (DPI, 15 μM) and trans-resveratrol (100 μM), genistein (100 μM), or a combination of polyphenolic compounds and antioxidants. Intracellular H2O2 was measured by flow cytometry of DCF-labeled cells. Mia PACA-2 cells and BSp73AS cells were cultured in Dulbecco's Modified Eagle's Medium supplemented with 10% heat inactivated FBS, penicillin G (100 U/ml) and streptomycin ([…]) in a humidified atmosphere comprising 5% (v/v) CO2. When the cells were 90% confluent they were detached, washed with alternating centrifugation and resuspension, plated and incubated in the same media with or without FBS or IGF-1 and with or without a given polyphenolic compound and with or without a given ROS inhibitor.
In general terms: Flow cytometry measures light scatter and fluorescence of single cells or particles in a stream.

For experiment [2], the system named is Mia PACA-2 cells. Nature of the experiment: Oligonucleosomal DNA fragmentation by cell death ELISA. Type of experiment: cell-based, human. Particulars: Mia PACA-2, 72 hours, with serum. As for the experimental part:
Mia PACA-2 cells were cultured for 72 hours in the presence of serum with or without 15 μM DPI, 10 mM Tiron, 100 μM genistein, 100 μM or 50 μM trans-resveratrol, or a combination thereof. Oligonucleosomal DNA fragmentation was measured in cell lysates by cell death ELISA.
Annexin staining was conducted as described above. Cells were collected, washed with PBS, and centrifuged for 10 min at 200×g. DNA fragmentation was determined using Cell Death Detection ELISA Plus kit (Roche Molecular Biochemicals).
To determine the role of caspases in the effects of combinations of agents on apoptosis, the effects of caspase-3 activity (DEVDase activity) as well as the effect of the broad spectrum caspase inhibitor, Z-VAD, on apoptosis was measured. Specifically, Mia PACA-2 cells were cultured for 72 hours in the presence of serum with or without 100 μM Z-VAD, 15 μM DPI, 100 μM trans-resveratrol, 100 μM genistein, a combination of trans-resveratrol and DPI, and a combination of genistein and DPI. DEVDase activity was measured in whole cell lysates with a fluorimetric assay. DNA fragmentation was measured in cell lysates by cell death ELISA.
In particular, Mia PACA-2 cells were cultured for 72 hours in the presence of serum with or without 50 μM trans-resveratrol (RS), 15 μM DPI, a combination of DPI and trans-resveratrol (RS+DPI), 10 μM MG-132 alone and in combination with RS, DPI, and RS+DPI. Internucleosomal DNA fragmentation was measured in cell lysates by cell death ELISA.
(An ELISA detects its analyte on a solid surface through an enzyme-linked reagent.)

Experiment [3] concerns Mia PACA-2 cells. Nature of the experiment: Mitochondrial membrane potential, DiOC6(3) retention. It counts as cell-based, human. Particulars: Mia PACA-2, 72 hours, in the presence of serum (FIG. 11). As for the experimental part: In order to determine the effects polyphenolic compounds have on mitochondrial membrane potential, the retention of the dye 3,3′-dihexyloxacarbocyanine (DiOC6(3)) was measured as described by Pastorino J G, et al. (1998) J Biol Chem 273:7770-7775, which is herein incorporated by reference. BSp73AS cells were cultured for 6 hours in the absence (control) or presence of 0, 12, 24, 50, and 100 μM quercetin and trans-resveratrol. The cells were loaded with 1 μM DiOC6(3) during the last 30 minutes of treatment with a polyphenolic compound (or vehicle). The cells were then collected and pelleted by centrifugation. The supernatant was removed and the pellet was washed twice with PBS by alternate centrifugation and resuspension. The pellet was then lysed by addition of 1 ml of H2O and homogenized. The concentration of DiOC6(3) was read on a Perkin-Elmer LS-5 fluorescence spectrometer at 488 nm excitation and 500 nm emission. An aliquot of the cells was used for determining the DiOC6(3) fluorescence that was retained by the cells.
Mia PACA-2 cells were cultured for 72 hours in the presence of serum and trans-resveratrol or genistein in the presence or absence of DPI or Tiron. Mitochondrial membrane potential was measured as described above.

The subject of a further experiment is NF-κB. Nature of the experiment: NF-κB DNA binding activity (EMSA / gel shift). It counts as cell-based, human. Particulars: Mia PACA-2, 72 hours, with serum; DPI 15 μM, trans-resveratrol 100 μM, genistein 100 μM, LY294002 50 μM. As for the experimental part:
In order to determine the role of activated NF-κB in the regulation of apoptosis caused by the polyphenolic compound, the following assay was conducted. BSp73AS cells were cultured for 6 hours and Mia PACA-2 cells were cultured in the absence of serum or growth factors for 24 hours in the absence (controls) or presence of rutin, quercetin, trans-resveratrol, or genistein, each at 100 μM and 20 μM proteosome inhibitor MG-132. Nuclear proteins were isolated and analyzed for NF-κB DNA binding activity with electrophoretic mobility shift assay (EMSA).
Specifically, aliquots of nuclear extracts with equal amount of protein, about 2 to about 10 μg, were mixed in 20 μl reactions with a buffer comprising 10 mM HEPES (pH 7.6), 50 mM KCl, 0.1 mM EDTA, 1 mM DTT, 10% (vol/vol) glycerol and 3 μg poly[d (I-C)]. After aliquots were equilibrated on ice for 5 minutes, binding reactions were stared by addition of 20-60,000 counts/min (20 fM) of ^32P-labeled DNA probes and allowed to proceed for 25-30 minutes at room temperature or up to 1 hour on ice. The oligonucleotide probe
containing the κB binding motif (underlined) was annealed to the complementary oligonucleotide with a 5′-G overhang and end-labeled using Klenow DNA polymerase I. The samples were electrophoresed at room temperature in 0.5×TBE buffer (1×TBE 89 mM Tris base, 89 mM boric acid and 2 mM EDTA) on nondenaturing 4.5% polyacrylamide gel at 200 V. Gels were dried and directly analyzed in the PhosphorImager (Molecular Dynamics, Sunnyvale, Calif.). The experiment was repeated twice.
To study the effects of combinations of DPI and polyphenolic compounds on serum-induced activation of NF-κB and protection from apoptosis, the following assay was conducted. Mia PACA-2 cells were cultured for 72 hours in the presence of serum with or without 100 μM trans-resveratrol, 15 μM DPI, a combination of trans-resveratrol, 100 μM genistein, or a combination of genistein and DPI. NF-κB binding activity was measured in nuclear extracts by gel shift assay as described above.
To determine the effects of LY29400 and DPI on NF-κB activation, Mia PACA-2 cells were cultured for 72 hours in the presence of serum and 15 μM DPI with or without 50 μM LY294002. NF-κB DNA binding activity was measured in nuclear extracts by gel shift assay as described above.
(In EMSA bound probe runs differently from free probe, usually more slowly.)

In experiment [4] the test system is PARP. Nature of the experiment: PARP proteolysis (Western blot). It counts as cell-based, rat. Particulars: BSp73AS, 6 hours, 50 μM inhibitor. On the procedure: (§1) BSp73AS cells were cultured for 6 hours and Mia PACA-2 cells were cultured for 24 hours in the presence or absence of 100 μM of each rutin, quercetin or trans-resveratrol and with or without 50 μM of each […]. The cells were washed twice with PBS and lysed by incubating for 20 minutes at 4° C. in lysis buffer comprising 0.15 M NaCl, 50 mM Tris (pH 7.2), 1% deoxycholic acid (wt/vol), 1% Triton X-100 (wt/vol), 0.1% […] (wt/vol) and 1 mM PMSF, as well as 5 μg/ml each of protease inhibitors, pepstatin, leupeptin, chymostatin, antipain, and aprotinin. Then the cell lysates were centrifuged for 20 minutes at 15,000 g at 4° C. The supernatants were separated by 4-20% SDS-PAGE for 2 hours at 120 V using precast Tris-glycine gels and a Mini-Cell gel apparatus (Novex, San Diego, Calif.). Separated proteins were electrophoretically transferred to a nitrocellulose membrane for 2 hours at 30 V using a Novex Blot Module (Novex, San Diego, Calif.). Nonspecific binding was blocked by 1 hour incubation of nitrocellulose membranes in 5% (wt/vol) nonfat dry milk in Tris-buffered saline (TBS; pH 7.5). Blots were then incubated overnight at 4° C. with rabbit polyclonal antibody against poly (ADP-ribose) polymerase (PARP) (Santa Cruz Biotechnology, Santa Cruz, Calif.) (1;3,000) in an antibody buffer comprising (1% (wt/vol) non-fat dry milk in TTBS (0.05% vol/vol) Tween-20 in TBS), washed 3 times with TTBS and finally incubated for 1 hour with a peroxidase-labeled secondary antibody in the antibody buffer. Blots were developed for visualization using ECL detection kit. To test for equal protein loading, the blots were stripped and re-probed with an antibody against tubulin. When processing of a protein was measured, a decrease in unprocessed full-length form was measured concomitantly with the increase in the cleaved, active form. The experiment was repeated 3 times with similar results.

In experiment [5] the test system is PARP. Nature of the experiment: PARP proteolysis (Western blot). Particulars: Mia PACA-2, 24 hours, 50 μM inhibitor. Type of experiment: cell-based, human. As for the experimental part: as §1
Another experiment relates to caspase-3. Nature of the experiment: Caspase-3 (DEVDase) activity, fluorogenic assay with DEVD-AMC. Type of experiment: cell-based, human. Particulars: Mia PACA-2, 24 hours; Z-VAD FMK 50 μM (FIG. 12B).
Another experiment has as its system cytochrome c. Nature of the experiment: Mitochondrial cytochrome c release (Western blot). It counts as cell-based, human. Particulars: Mia PACA-2, 24 hours, Z-VAD FMK 50 μM. On the procedure:
In order to determine the effects polyphenolic compounds have on mitochondrial cytochrome c release and apoptosis, the following assay was conducted. BSp73AS cells were cultured for 6 hours and Mia PACA-2 cells were cultured in the absence of serum or growth factors for 24 hours in the absence or presence of 100 μM of each rutin, trans-resveratrol, genistein, or quercetin. Cells were washed twice with ice-cold PBS, pH 7.2 and resuspended in extraction buffer, about 500 μl, comprising 20 mM HEPES-KOH (pH 7.0), 10 mM KCl, 1 mM NaEGTA, 2 mM MgCl2, 1 mM EDTA, 1 mM DTT, 250 mM sucrose, 1 mM PMSF and protease inhibitors cocktail as provided above. The lysate was incubated for 30 minutes on ice and then homogenized using a glass dounce (80 strokes). Nuclei were removed by centrifugation at 1,000 g for 10 minutes at 4° C. Supernatant was additionally centrifuged for 1 hour at 100,000 g and the resulting supernatant (cytosolic fraction) and pellet (mitochondrial fraction) were collected separately, subjected to SDS-PAGE, and Western blotting using an antibody against cytochrome c. The experiment was repeated twice with similar results.
In order to determine the role of the cancer cell's PTP in the effects of the polyphenolic compounds on mitochondrial function, caspase-3 activation and apoptosis, we performed the following experiments. Mia PACA-2 cells were cultured in the absence of serum or growth factors for 24 hours in the presence or absence of quercetin (100 μM), trans-resveratrol (100 μM), Z-VAD FMK (50 μM), cyclosporin A (5 μM) and/or aristolochic acid (50 μM). Cells were collected, washed with ice-cold PBS and resuspended in lysis buffer comprising 0.5% Nonidet P-40 or manufactured by the name IGEPAL CA-630, 0.5 mM EDTA, 150 mM NaCl and 50 mM Tris at pH 7.5. Cell lysates were placed for 30 minutes on a rotator at 4° C. and then centrifuged for 15 minutes at 15,000 g. Cytosolic protein extracts (supernatants) were collected, protein concentrations were determined and the extracts were aliquoted and stored at −80° C. Cytosolic extracts were subjected to SDS-PAGE and Western blot was performed with an antibody against cytochrome c. Blots were then stripped and re-probed with an antibody against tubulin to confirm equal protein loading. The experiment was repeated twice with similar results.
In order to determine the effect of a combination of trans-resveratrol and quercetin on cytochrome c release and caspase-3 activity, the following was conducted. Mia PACA-2 cells were cultured in the absence of serum or growth factors for 24 hours in the presence or absence of trans-resveratrol (25 μM), quercetin (25 μM), or the combination of trans-resveratrol (25 μM) and quercetin (25 μM). Cytosolic extracts were prepared and subject to SDS-PAGE followed by protein transfer. Immunoblot was performed with an antibody against tubulin to confirm equal protein loading.

Molecules are shown by their SMILES. Residues, ends and D or L forms follow the SMILES beside them. *: point of attachment. Cbz = O=C(OCc1ccccc1)*; CH2F = FC*

Here are results for three compounds from US6953786B2, “Compositions comprising plant-derived polyphenolic compounds and inhibitors of reactive oxygen species and methods of using thereof” (The Regents of the University of California, priority 2002, dated 2005).

Description for caspase-3: To determine whether a polyphenolic compound activates caspase-3 activity in a time-dependent manner, the following assay was conducted. BSp73AS cells were cultured for 0, 1, 3, and 6 hours and Mia PACA-2 cells were cultured in the absence of serum or growth factors for 0, 1, 4, 6, and 24 hours in the presence of 100 μM or quercetin, trans-resveratrol, rutin, or control. Caspase-3 activity was measured in cell lysates with a fluorogenic assay using DEVD-AMC as a substrate. The results were normalized to the DEVDase activity in untreated cells.
A fluorimetric assay for caspase-3 activity was conducted. […] Cytosolic protein extracts (supernatants) were collected, protein concentrations were determined and the extracts were aliquoted and stored at −80° C. […] The reaction was started by addition of caspase-3 substrate, the readings were taken at 0, 60, 90, and 120 minutes. Fluorescence was calibrated using a standard curve for AMC. The data were expressed as mol AMC/mg protein/min.
Mia PACA-2 cells were cultured in the absence of serum or growth factors for 24 hours in the presence or absence of quercetin (100 μM), trans-resveratrol (100 μM), Z-VAD FMK (50 μM), cyclosporin A (5 μM) and/or aristolochic acid (50 μM). […] The reaction was started by addition of caspase-3 substrate, the readings were taken at 0, 60, 90, and 120 minutes. Fluorescence was calibrated using a standard curve for AMC. […] The data were expressed as mol AMC/mg protein/min. […]

Consider `c1ccc2c(c1)[I+]c1ccccc1-2` [DPI, diphenylene iodonium, reference compound], for which the “increase in ROS production caused by trans-resveratrol and genistein, effect of DPI” value in the experiment on Mia PACA-2 cells [1] is “prevented”. In addition, in the experiment with Mia PACA-2 cells [2] (DPI 15 μM, Tiron 10 mM, genistein 100 μM, trans-resveratrol 100 or 50 μM), the “oligonucleosomal DNA fragmentation (apoptosis)” value is recorded as “either no or small effects”. Besides, the mitochondrial membrane potential result in the experiment on Mia PACA-2 cells [3] was “markedly depolarized the mitochondrial membrane”. Besides, the “NF-κB activation caused by serum” value in the experiment on NF-κB was “not inhibited”.

For the compound `O=S(=O)(O)c1cc(O)c(O)c(S(=O)(=O)O)c1` [Tiron, reference compound], the mitochondrial membrane potential entry in the experiment on Mia PACA-2 cells [3] is “markedly depolarized the mitochondrial membrane”.

As to `COC(=O)C[C@H](NC(=O)[C@H](C)NC(=O)[C@@H](NC(=O)OCc1ccccc1)C(C)C)C(=O)CF` [Z-VAD, reference compound] (Cbz-Val-Ala-Asp(OMe)-CH2F), the “PARP cleavage by quercetin and trans-resveratrol in the presence of caspase inhibitor” value in the experiment on PARP [4] and in the experiment on PARP [5] was “cleavage did not occur” each time. The “apoptosis (DNA fragmentation) caused by combinations of ROS inhibitor and polyphenolic compound, effect of Z-VAD” value in the experiment on Mia PACA-2 cells [2] (Z-VAD 100 μM) is “inhibits apoptosis caused by the combinations”. In addition, the “caspase activity in cells treated with polyphenolic compounds, effect of Z-VAD” value with caspase-3 is “blocked caspase activity”. Also, the “release of cytochrome c into the cytoplasm in control (untreated) cells” value with cytochrome c (no serum) is “inhibited the release of cytochrome c”. Besides, the “cytosolic cytochrome c release caused by quercetin or trans-resveratrol” value with cytochrome c (polyphenol 100 μM) is “had no effect”.
